# Reference: the supplement of paper PMC10307832
# Assays:
# Experiment in all cases: relative viability (nuclei count vs DMSO), 5 days (fraction); higher = more cells survive
# 201T = test system: 201T
# In short: (§1)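 Lung cancer cell lines, seeded in 1536-well plates, were treated the following day by pin tool with a single drug or with five library-drug doses (not always all listed) in √10 steps on top of a fixed anchor-drug dose. Cells were fixed and nuclei stained in one step after 5 days, and nuclei were counted. Relative viability is the nuclei count for treated wells divided by that for vehicle wells, reported as medians of duplicate plates.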
# A-427 = test system: A-427
# In short: as §1
# BEN = test system: BEN
# In short: as §1
# COR-L23 = test system: COR-L23
# In short: as §1
# EKVX = test system: EKVX
# In short: as §1
# HARA = test system: HARA
# In short: as §1
# HCC-15 = test system: HCC-15
# In short: as §1
# HCC-44 = test system: HCC-44
# In short: as §1
# HCC-827 = test system: HCC-827
# In short: as §1
# NCI-H1437 = test system: NCI-H1437
# In short: as §1
# NCI-H1650 = test system: NCI-H1650
# In short: as §1
# NCI-H1792 = test system: NCI-H1792
# In short: as §1
# NCI-H1975 = test system: NCI-H1975
# In short: as §1
# NCI-H2342 = test system: NCI-H2342
# In short: as §1
# NCI-H23 = test system: NCI-H23
# In short: as §1
# NCI-H358 = test system: NCI-H358
# In short: as §1
# NCI-H441 = test system: NCI-H441
# In short: as §1
# NCI-H596 = test system: NCI-H596
# In short: as §1
# NCI-H650 = test system: NCI-H650
# In short: as §1
# NCI-H838 = test system: NCI-H838
# In short: as §1
# SK-MES-1 = test system: SK-MES-1
# In short: as §1
# SW 900 = test system: SW 900
# In short: as §1
structure (smiles),measurement,setting,value
Cc1sc2c(c1C)C(c1ccc(Cl)cc1)=N[C@@H](CC(=O)OC(C)(C)C)c1nnc(C)n1-2 [JQ1] + CCNC(=O)c1noc(-c2cc(C(C)C)c(O)cc2O)c1-c1ccc(CN2CCOCC2)cc1 [Luminespib] (partner 0.01 µM),relative viability,201T; first compound 0.04 µM,1.06
same,relative viability,201T; first compound 0.1265 µM,0.77
same,relative viability,201T; first compound 0.4 µM,0.745
same,relative viability,201T; first compound 1.265 µM,0.753
same,relative viability,201T; first compound 4 µM,0.522
same,relative viability,A-427; first compound 0.04 µM,0.795
same,relative viability,A-427; first compound 0.1265 µM,0.97
same,relative viability,A-427; first compound 0.4 µM,0.847
same,relative viability,A-427; first compound 1.265 µM,0.563
same,relative viability,A-427; first compound 4 µM,0.431
same,relative viability,BEN; first compound 0.04 µM,0.259
same,relative viability,BEN; first compound 0.1265 µM,0.329
same,relative viability,BEN; first compound 0.4 µM,0.379
same,relative viability,BEN; first compound 1.265 µM,0.126
same,relative viability,BEN; first compound 4 µM,0.169
same,relative viability,COR-L23; first compound 0.04 µM,0.649
same,relative viability,COR-L23; first compound 0.1265 µM,0.6
same,relative viability,COR-L23; first compound 0.4 µM,0.504
same,relative viability,COR-L23; first compound 1.265 µM,0.207
same,relative viability,COR-L23; first compound 4 µM,0.114
same,relative viability,EKVX; first compound 0.04 µM,0.832
same,relative viability,EKVX; first compound 0.1265 µM,0.877
same,relative viability,EKVX; first compound 0.4 µM,0.895
same,relative viability,EKVX; first compound 1.265 µM,0.824
same,relative viability,EKVX; first compound 4 µM,0.572
same,relative viability,HARA; first compound 0.04 µM,0.65
same,relative viability,HARA; first compound 0.1265 µM,0.508
same,relative viability,HARA; first compound 0.4 µM,0.374
same,relative viability,HARA; first compound 1.265 µM,0.168
same,relative viability,HARA; first compound 4 µM,0.153
same,relative viability,HCC-15; first compound 0.04 µM,0.348
same,relative viability,HCC-15; first compound 0.4 µM,0.45
same,relative viability,HCC-15; first compound 1.265 µM,0.298
same,relative viability,HCC-15; first compound 4 µM,0.216
same,relative viability,HCC-44; first compound 0.04 µM,0.968
same,relative viability,HCC-44; first compound 0.1265 µM,0.433
same,relative viability,HCC-44; first compound 0.4 µM,0.551
same,relative viability,HCC-44; first compound 1.265 µM,0.388
same,relative viability,HCC-44; first compound 4 µM,0.153
same,relative viability,HCC-827; first compound 0.04 µM,0.887
same,relative viability,HCC-827; first compound 0.4 µM,0.424
same,relative viability,HCC-827; first compound 1.265 µM,0.624
same,relative viability,HCC-827; first compound 4 µM,0.59
same,relative viability,NCI-H1437; first compound 0.04 µM,1.1
same,relative viability,NCI-H1437; first compound 0.1265 µM,1.09
same,relative viability,NCI-H1437; first compound 0.4 µM,1.11
same,relative viability,NCI-H1437; first compound 1.265 µM,0.617
same,relative viability,NCI-H1437; first compound 4 µM,0.393
same,relative viability,NCI-H1650; first compound 0.04 µM,0.21
same,relative viability,NCI-H1650; first compound 0.1265 µM,0.199
same,relative viability,NCI-H1650; first compound 0.4 µM,0.167
same,relative viability,NCI-H1650; first compound 1.265 µM,0.161
same,relative viability,NCI-H1650; first compound 4 µM,0.206
same,relative viability,NCI-H1792; first compound 0.04 µM,0.522
same,relative viability,NCI-H1792; first compound 0.1265 µM,0.437
same,relative viability,NCI-H1792; first compound 0.4 µM,0.383
same,relative viability,NCI-H1792; first compound 1.265 µM,0.201
same,relative viability,NCI-H1792; first compound 4 µM,0.314
same,relative viability,NCI-H1975; first compound 0.04 µM,0.212
same,relative viability,NCI-H1975; first compound 0.1265 µM,0.137
same,relative viability,NCI-H1975; first compound 0.4 µM,0.162
same,relative viability,NCI-H1975; first compound 1.265 µM,0.206
same,relative viability,NCI-H1975; first compound 4 µM,0.172
same,relative viability,NCI-H2342; first compound 0.04 µM,0.633
same,relative viability,NCI-H2342; first compound 0.1265 µM,0.569
same,relative viability,NCI-H2342; first compound 0.4 µM,0.8
same,relative viability,NCI-H2342; first compound 1.265 µM,0.739
same,relative viability,NCI-H2342; first compound 4 µM,0.539
same,relative viability,NCI-H23; first compound 0.04 µM,0.247
same,relative viability,NCI-H23; first compound 0.1265 µM,0.185
same,relative viability,NCI-H23; first compound 0.4 µM,0.179
same,relative viability,NCI-H23; first compound 1.265 µM,0.166
same,relative viability,NCI-H23; first compound 4 µM,0.173
same,relative viability,NCI-H358; first compound 0.04 µM,0.305
same,relative viability,NCI-H358; first compound 0.1265 µM,0.398
same,relative viability,NCI-H358; first compound 0.4 µM,0.401
same,relative viability,NCI-H358; first compound 1.265 µM,0.385
same,relative viability,NCI-H358; first compound 4 µM,0.27
same,relative viability,NCI-H441; first compound 0.04 µM,0.37
same,relative viability,NCI-H441; first compound 0.1265 µM,0.501
same,relative viability,NCI-H441; first compound 0.4 µM,0.419
same,relative viability,NCI-H441; first compound 1.265 µM,0.253
same,relative viability,NCI-H441; first compound 4 µM,0.235
same,relative viability,NCI-H596; first compound 0.04 µM,1.09
same,relative viability,NCI-H596; first compound 0.1265 µM,0.769
same,relative viability,NCI-H596; first compound 0.4 µM,0.495
same,relative viability,NCI-H596; first compound 1.265 µM,0.344
same,relative viability,NCI-H596; first compound 4 µM,0.287
same,relative viability,NCI-H650; first compound 0.04 µM,0.743
same,relative viability,NCI-H650; first compound 0.1265 µM,0.7
same,relative viability,NCI-H650; first compound 0.4 µM,0.546
same,relative viability,NCI-H650; first compound 1.265 µM,0.203
same,relative viability,NCI-H650; first compound 4 µM,0.212
same,relative viability,NCI-H838; first compound 0.04 µM,0.289
same,relative viability,NCI-H838; first compound 0.1265 µM,0.288
same,relative viability,NCI-H838; first compound 0.4 µM,0.222
same,relative viability,NCI-H838; first compound 1.265 µM,0.161
same,relative viability,NCI-H838; first compound 4 µM,0.144
same,relative viability,SK-MES-1; first compound 0.04 µM,0.756
same,relative viability,SK-MES-1; first compound 0.1265 µM,0.581
same,relative viability,SK-MES-1; first compound 0.4 µM,0.317
same,relative viability,SK-MES-1; first compound 1.265 µM,0.163
same,relative viability,SK-MES-1; first compound 4 µM,0.173
same,relative viability,SW 900; first compound 0.04 µM,0.153
same,relative viability,SW 900; first compound 0.1265 µM,0.186
same,relative viability,SW 900; first compound 0.4 µM,0.169
same,relative viability,SW 900; first compound 1.265 µM,0.183
same,relative viability,SW 900; first compound 4 µM,0.177
